Assay results: US20210205638A1, “PARATHYROID HORMONE AND REGENERATION OF DEGENERATIVE DISCS DISEASE” (THE JOHNS HOPKINS UNIVERSITY, priority 2017, published 2021)

Legend:
18-month-old mice = test: iPTH in aged mice: safranin O staining and immunostaining of IVD sections; format: in vivo, mouse
Method: For immunocytochemical staining, we incubated GFP labeled NP cells co-stained with primary antibody to rabbit PTH1R PRB-635P (Covance, 1:100) for 1 h and subsequently stained with secondary antibodies conjugated with fluorescence at room temperature. At the time of euthanasia, we dissected and fixed the lumbar vertebral spine in 10% buffered formalin for 48 h, decalcified them in 10% EDTA (pH 7.4) for 14-21 days and embedded them in paraffin or optimal cutting temperature (OCT) compound (Sakura Finetek). Fourmicrometer-thick coronal-oriented sections of the L1-L6 spine were processed for safranin O and fast green staining. Sections for immunostaining was performed using a standard protocol and incubated with primary antibodies to rabbit ACAN (Abcam, 1:100), CCN2 (Abcam, 1:100), integrin β8 (Abcam, 1:200), pCREB (Abcam, 1:100) and PTH1R PRB-635P (Covance, 1:100), mouse pSmad2/3 (Santa Cruz, 1:100), integrin αvβ6 (Millipore, 1:100), integrin αvβ3 (Bioss, 1:100,), integrin αvβ5 (Bioss, 1:100) at 4° C. overnight. For immunohistochemical staining, a horse radish peroxidase-streptavidin detection system (Dako) was subsequently used to detect the immunoactivity, followed by counterstaining with hematoxylin (Sigma-Aldrich). For immunofluorescent assay, the slides were incubated with secondary antibodies conjugated with fluorescence at room temperature for 1 h while avoiding light. We used isotype-matched controls, such as polyclonal rabbit IgG (R&D Systems, AB-105-C) under the same concentrations and conditions as negative controls. We micro photographed sections to perform histomorphometric measurements on the entire area of the L3-L4 of the spine (Olympus DP71).
Quantitative histomorphometric analysis was conducted in a blinded fashion with Image-Pro Plus Software version 6.0 (Media Cybernetics Inc). IVD histological score were obtained as previously described67. Five randomly selected sections per mice in each group at L3-L4 level were chosen for quantitative histomorphometric analysis. The percentage of pSmad2/3 and pCREB positive cells was obtained by counting the number of positive staining cells to the number of total cells in the NP region. The percentage area of CCN2 and ACAN positive staining was calculated by measuring the positive area to the whole area of the L3-L4 in each group.

IFT88-/- mice = test: iPTH in IFT88-/- and wild-type mice: PPCT IVD volume and IVD histological score; format: in vivo, mouse
From the text: Mice carrying the PTH1R gene flanked by loxP sites (PTH1R^flox/flox) were mated with Noto^Cre mice to generate mice bearing Noto^Cre and a floxed PTH1R allele in their germline. These mice were backcrossed to homozygous floxed mice (Noto^Cre/+/PTH1R^flox/+::PTH1R^flox/flox) to generate mice with inactivation of both alleles in notochord derived cells (genotype […]). Homozygous disruption of the Noto locus is perinatally lethal; viable offspring have genotypes of either Noto^Cre/+:: PTH1R^flox/flox (mice with PTH1R conditional deletion in Noto lineage cells are referred to as “[…]” in the text) or Noto^+/+:: PTH1R^flox/flox (wild-type littermates hereinafter referred to as “PTH1R^+/+” in the text). The genotype of transgenic mice was determined by PCR analyses of genomic DNA isolated from mouse tails. The floxed PTH1R allele was identified with primers lox1F (5-[…] ID NO: 1) and lox1R (5-[…] ID NO: 2). The genotyping for the Cre transgene was performed by PCR with the primers […] ID NO: 3) […] ID NO: 4). We generated Noto^Cre/+:: ROSA26-lacZ^flox/flox by crossing Noto mice with mice homozygous with a loxP-flanked DNA stop sequence, preventing expression of the downstream lacZ gene. IFT88^flox/flox mouse model has been generated as descripted. A NP tissue-specific primary cilia knock-out (KO) mouse line was generated by crossing NotoCre mice with IFT88^flox/flox mice, in which the primary cilia were deleted from the NP tissue. The loxP IFT88 allele was identified with the primers lox2F ([NT] ID NO: 5) and lox2R ([NT] ID NO: 6). The 11 month-old PTH1R^+/+ and PTH1R^-/- male mice were randomized into four groups: PTH1R^+/++PTH (1-34), PTH1R^+/++Vehicle, PTH1R^-/-+PTH (1-34) and PTH1R^-/-+Vehicle groups (n=8 per group). […] Quantitative histomorphometric analysis was conducted in a blinded fashion with Image-Pro Plus Software version 6.0 (Media Cybernetics Inc). […] Five randomly selected sections per mice in each group at L3-L4 level were chosen for quantitative histomorphometric analysis. […] The percentage area of CCN2 and ACAN positive staining was calculated by measuring the positive area to the whole area of the L3-L4 in each group. […] The images were reconstructed and analyzed using the GPU-CT-Reconstruction software (applied by the BL13W1 experimental station) and the VG Studio Max 3D software (version 2.1, Volume Graphics GmbH, Germany) respectively. […] The 3D quantitative analysis of IVDs was performed with the commercially available Image Pro Analyzer 3D software (Version 7.0, Media Cybernetics, Inc., USA). The 3D structural parameters analyzed for the mean height and volume and thickness distribution of IVDs. […]

Compound: CC[C@H](C)[C@H](NC(=O)[C@H](CCC(=O)O)NC(=O)[C@H](CO)NC(=O)[C@@H](NC(=O)[C@@H](N)CO)C(C)C)C(=O)N[C@@H](CCC(N)=O)C(=O)N[C@@H](CC(C)C)C(=O)N[C@@H](CCSC)C(=O)N[C@@H](Cc1cnc[nH]1)C(=O)N[C@@H](CC(N)=O)C(=O)N[C@@H](CC(C)C)C(=O)NCC(=O)N[C@@H](CCCCN)C(=O)N[C@@H](Cc1cnc[nH]1)C(=O)N[C@@H](CC(C)C)C(=O)N[C@@H](CC(N)=O)C(=O)N[C@@H](CO)C(=O)N[C@@H](CCSC)C(=O)N[C@@H](CCC(=O)O)C(=O)N[C@@H](CCCN=C(N)N)C(=O)N[C@H](C(=O)N[C@@H](CCC(=O)O)C(=O)N[C@@H](Cc1c[nH]c2ccccc12)C(=O)N[C@@H](CC(C)C)C(=O)N[C@@H](CCCN=C(N)N)C(=O)N[C@@H](CCCCN)C(=O)N[C@@H](CCCCN)C(=O)N[C@@H](CC(C)C)C(=O)N[C@@H](CCC(N)=O)C(=O)N[C@@H](CC(=O)O)C(=O)N[C@H](C(=O)N[C@@H](Cc1cnc[nH]1)C(=O)N[C@@H](CC(N)=O)C(=O)N[C@@H](Cc1ccccc1)C(=O)O)C(C)C)C(C)C [PTH (1-34), teriparatide]
- IVD score (18-month-old mice): decrease
- level of CCN2+ (18-month-old mice; immunostaining): increased
- level of aggrecan (18-month-old mice; immunostaining): increased
- number of pSmad2/3+ NP cells (18-month-old mice; immunostaining): increased
- number of NP cells (18-month-old mice; safranin O): significantly increased
- improvement of IVD scores by iPTH (IFT88-/- mice; IFT88-/- mice): impaired
- iPTH-increased IVD volume (IFT88-/- mice; IFT88-/- mice relative to wild-type mice): blunted
- IVD scores (IFT88-/- mice; wild-type mice): improvement
- IVD volume (IFT88-/- mice; wild-type mice): increased
